Data reported in patent US7902346B2, “Fusion protein comprising FK506 binding protein and DNA encoding the same” (Industry Academic Cooperation Foundation, Hallym University, priority 2006, dated 2011).

How the values were obtained:
[1] = tested on: human skin primary fibroblast cells; assay: Intracellular transduction of fusion protein into skin cells, Western blot analysis; format: cell-based
Method: The human skin primary fibroblast cells obtained from Catholic University medical school (Korea) were cultured in Dulbecco's modified Eagle's medium (DMEM) containing 20 mM HEPES/NaOH (pH 7.4), 5 mM NaHCO3, 10% fetal bovine serum (FBS) and antibiotics ([…], 100 U/ml penicillin) at 37° C. under a humidified condition of 95% air and 5% CO2. For the transduction of Pep-1-FK506 binding proteins, skin cells were grown about […] to confluence on a 6-well plate. The culture medium was then replaced with fresh solution containing 10% fetal bovine serum. After skin cells were treated with one of 3 kinds of fusion protein of the FK506 binding protein (Pep-1 peptide is bound C-, N- or C-/N-terminus of FK506 binding protein respectively) for 1 hr, the cells were then treated with trypsin-EDTA and washed with phosphate-buffered saline (PBS). Thereafter the cells were harvested for the preparation of cell extracts to perform Western blot analysis.
Western blot analysis was performed to identify intracellular transduction of the fusion protein of FK506 binding protein. The protein was purified in nature form. […]
The transduced Pep-1-FK506BP proteins on the polyacrylamide gel were electrophoretically transferred to a nitrocellulose membrane. […]

cyclooxygenase-2 = assay: Immunity inhibition effect: lipopolysaccharide-induced cyclooxygenase-2 expression in skin cells, Western blot; format: cell-based, human
Method: Thereafter, one of 3 kinds of the fusion protein of FK506BP was added to the each group of cells, respectively. After lipopolysaccharides were added, the expression of cyclooxygenase-2 was monitored via the Western Blot analysis.

epidermis of mouse = assay: Penetration of fusion protein into epidermis of mouse; settings: in vivo

## Pep-1-FK506BP: Fusion protein of human FK506 binding protein with Pep-1 peptide (SEQ ID NO: 3) and six histidines at the amino terminus; Seq. No. 7
[1]; native fusion protein, 0.5-5 μM for 60 min and 5 μM for 10-60 min (FIG. 3)
  transduction into skin cells (western blot): transduced into skin cells in a time- and concentration-dependent manner
[1]; skin cells treated with 5 μM for 10-60 min (FIG. 3B)
  time in which the protein was transduced: ≤ 10 min
cyclooxygenase-2
  apoptosis induced by lipopolysaccharides: inhibited apoptosis
cyclooxygenase-2; fusion protein together with FK506, compared with fusion protein alone
  effect on lipopolysaccharide-induced cyclooxygenase-2 expression, treatment together with FK506: more effective
cyclooxygenase-2; western blot (FIG. 5), 10 μM fusion protein
  expression of cyclooxygenase-2 induced by lipopolysaccharides: inhibited
Epidermis of mouse
  penetration into epidermis of mouse: effectively penetrated
